Where two headings read alike, the source gives them in different places.
Tested on: α7 integrin (LacZ reporter in α7LacZ+/− myoblasts)
Test: qHTS of the LOPAC library and MLSMR (online screen, α7LacZ+/− myoblasts)
Conditions: for activation at 0.307 µM / activation at 1.53 µM / activation at 7.66 µM / activation at 38.3 µM / Emax / EC50: Mus musculus, Myoblast; for activation at 0.307 µM: read-out: Activity at 0.307 uM [%] **; for activation at 1.53 µM: read-out: Activity at 1.530 uM [%] **; for activation at 7.66 µM: read-out: Activity at 7.660 uM [%] **; for activation at 38.3 µM: read-out: Activity at 38.30uM [%] **; for EC50: read-out: Fit LogAC50 (converted)
[1] = 48 h, read-out: Fit Infinite Activity [%]

Description: A total of 250 α7LacZ^+/− myoblasts at passage 13 were dispensed using a multidrop (Thermo) into black low base tissue culture treated microclear aurora plates in 6 μl media containing DMEM without phenol, 5% FBS, 1× GluMax and 1× Penicillin/Streptomycin. […] Compounds were then dispensed using a Kalypsys pintool to deliver 23 nl/well compounds in DMSO (diluted into 6 μl resulting in a 1:260 dilution of compound). […] After incubation with compound, 5 μl of the media was aspirated using the Kalypsys washer/dispenser and 3 μl of the Mammalian Protein Extraction Reagent (MPER) lysis buffer (Thermo Fisher) was added. […] The plates were then incubated for 10 minutes at room temperature.
The assay was adapted for a high-throughput screen with the fully automated Kalypsys robotic system using 1536 well plates at NCGC.

SMILES | activation at 0.307 µM (48 h) | activation at 1.53 µM (48 h) | activation at 7.66 µM (48 h) | activation at 38.3 µM (48 h) | Emax [1] | EC50 | Emax (read-out: Max Response [%]) | Score
CC1CCCCN1c1ncnc(N)c1[N+](=O)[O-] (stereo not drawn) [Compound 52] | -25.7% | 1.73% | 86.4% | 130% | 138% | 4.47 µM | – | –
O=C(Nc1ccc(Cl)cc1N1CCOCC1)C1CCCCC1 [Compound 53] | 0% | 28.1% | 71.9% | 119% | 152% | 7.08 µM | – | –
CCCn1c(-c2cc(OC)c(OC)c(OC)c2)nc2c1c(=O)[nH]c(=O)n2Cc1ccccc1 [Compound 54] | 42% | 58.6% | 120% | 213% | 262% | 12.6 µM | 213% | –
CS(=O)(=O)c1ccc(Cl)c(NC(=O)CSc2nncn2-c2ccccc2)c1 [Compound 55] | -24.6% | -12.1% | 3.46% | 252% | 253% | 12.6 µM | 252% | –
CC(C)(CC(=O)O)CC(=O)N1CCCN(c2nccc(C(F)(F)F)n2)CC1 [Compound 56] | 24% | 38.1% | 86.7% | 108% | 111% | 3.98 µM | 108% | –
COc1cc(CNCc2ccc(C(=O)O)cc2)ccc1OCc1ccc(F)cc1 [Compound 57] | 1% | 14.6% | 82.2% | 113% | 115% | 4.47 µM | 113% | –
COc1ccc(Nc2ncnc3ccc(C)cc23)cc1 [Compound 58] | -29.7% | 3.35% | 49.1% | 82.8% | 95.6% | 3.55 µM | 82.8% | –
COc1ccc(-n2c(C)c(C(C)=O)c3cc(OC(C)=O)ccc32)cc1 [Compound 59] | 0% | -6.19% | 48.5% | 184% | 185% | 10 µM | 184% | –
O=C(COC(=O)c1cc2ccccc2oc1=O)Nc1ccc(F)cc1F [Compound 60] | -11% | 4.45% | 78.3% | 115% | 116% | 4.47 µM | 115% | –
CCNC(=O)CSc1nc(-c2ccc(F)cc2)cs1 [Compound 61] | -0.123% | 25.8% | 82.4% | 126% | 136% | 5.01 µM | 126% | –
CC(C)NC(=O)CN1CCN(C(=O)CCl)CC1 [Compound 62] | -21.4% | -18% | 77.9% | 155% | 162% | 7.08 µM | 155% | –
CS(=O)(=O)N(Cc1ccc(C(=O)NC2CCCC2)cc1)c1ccccc1 [Compound 63] | -3.95% | 2.24% | 57.8% | 196% | 199% | 10 µM | 196% | –
C=CCN(CC=C)C(=O)c1ccc(OC2CCN(S(=O)(=O)N(C)C)CC2)cc1 [Compound 64] | -6.4% | 3.46% | 95.1% | 129% | 130% | 5.01 µM | 129% | –
O=C(O)CCn1cc(/C=C2/NC(=S)N(c3ccccc3)C2=O)c(-c2ccccc2)n1 [Compound 65] | 8.21% | 2.59% | 27.2% | 464% | 501% | 20 µM | 464% | 45
CCc1nnc(NC(=O)c2ccc(S(=O)(=O)NCC(C)C)cc2)s1 [Compound 66] | 16.2% | 8.68% | 32.8% | 225% | 227% | 12.6 µM | 225% | –
CC1CCCCC12NC(=O)N(CC(=O)OCc1cccc(F)c1)C2=O (stereo not drawn) [Compound 67] | 6.4% | 14.5% | 69.8% | 142% | 162% | 10 µM | 142% | –
CNc1nnc(SCC(=O)c2cc(C)n(C3CC3)c2C)s1 [Compound 68] | -11.8% | -22% | 4.46% | 220% | 222% | 12.6 µM | 220% | –

SMILES | activation at 0.307 µM (48 h) | activation at 1.53 µM (48 h) | activation at 7.66 µM (48 h) | activation at 38.3 µM (48 h) | Emax [1] | EC50 | Emax (read-out: Max Response [%]) | Score
CCCCNc1nnc(SCC(=O)c2c(N)n(CCC)c(=O)[nH]c2=O)s1 [Compound 69] | 0% | 16.2% | 62.8% | 84.4% | 88.1% | 3.98 µM | 84.4% | –
C/C(=N\OCC(=O)OC(C)C(=O)Nc1ccc(C(N)=O)cc1)c1ccc2c(c1)OCO2 (stereo not drawn) [Compound 70] | -15.5% | 4.11% | 57.2% | 89.5% | 96.1% | 4.47 µM | 89.5% | –
COc1cc(C(C(=O)NC2CCCCC2)N(C(=O)c2snc(C(N)=O)c2N)c2ccc(C)cc2)ccc1O (stereo not drawn) [Compound 71] | 0% | 9.63% | 58.8% | 109% | 122% | 7.94 µM | 109% | –
CC1CCN(S(=O)(=O)c2ccc(S(=O)(=O)N3CCCC3)cc2)CC1 [Compound 72] | 0.91% | -2.48% | 54.5% | 132% | 136% | 8.91 µM | 132% | –
CCC(CC)C(=O)Nc1c(C(=O)N2CCN(c3ccccc3)CC2)oc2ccccc12 [Compound 73] | 13.5% | 18.6% | 35.7% | 185% | 187% | 12.6 µM | 185% | –
COc1ccc(CCNC(=O)c2nn(C)c3c2CS(=O)(=O)c2ccccc2-3)cc1OC [Compound 74] | -22.8% | -9.73% | 56.7% | 84.2% | 86.2% | 4.47 µM | 84.2% | –
COc1ccc(Nc2ncnc3ccc(Br)cc23)cc1OC [Compound 75] | 28.1% | 40% | 79.7% | 95.9% | 98.4% | 3.98 µM | 95.9% | –
CCOc1ccc2ccccc2c1C1NC(=O)N(C)C(C)=C1C(=O)OCCOC (stereo not drawn) [Compound 76] | -5.81% | 5.65% | 55.1% | 97% | 106% | 6.31 µM | 97% | –
Cc1ccc(NC(=O)NCc2nc3ccccc3n2C)cc1 [Compound 77] | -33.5% | -19.7% | 54.7% | 85.1% | 87.1% | 4.47 µM | 85.1% | –
COc1ccc(C(=O)ONC(=N)c2cccc(C)c2)cc1OC [Compound 78] | 10.1% | 15.5% | 69.8% | 148% | 163% | 10 µM | 148% | –
CNc1cc([N+](=O)[O-])ccc1OCc1ccccc1 [Compound 79] | 1.52% | 16.2% | 57.3% | 80.2% | 84.8% | 4.47 µM | 80.2% | –
COC(=O)Cc1c(O)ccn(Cc2ccc3c(c2)OCO3)c1=O [Compound 80] | -4.78% | 4.56% | 65.9% | 146% | 169% | 10 µM | 146% | –
O=C(Nc1ccccc1F)c1ccc([N+](=O)[O-])s1 [Compound 81] | 1.83% | 5.12% | 24.3% | 215% | 216% | 12.6 µM | 215% | –
C/N=C(\S)N1CCC(NC(=O)C(Cc2ccc(F)cc2)NC(C)=O)CC1 (stereo not drawn) [Compound 82] | 0% | 23.1% | 63.7% | 84.7% | 90% | 3.16 µM | 84.7% | –
CCS(=O)(=O)N1CCCC(C(=O)c2ccc(OC)cc2C)C1 (stereo not drawn) [Compound 83] | -13.5% | -10.6% | 41.5% | 149% | 162% | 11.2 µM | 149% | –
CCCS(=O)(=O)N1CCCC(C(=O)c2cccc(Cl)c2)C1 (stereo not drawn) [Compound 84] | -5.29% | 11% | 59.7% | 102% | 114% | 6.31 µM | 102% | –
CC(C)(C)c1ccc(C(=O)OCC(=O)Nc2sc3c(c2C#N)CCC3)cc1 [Compound 85] | 3.25% | 13.3% | 71.6% | 101% | 103% | 5.01 µM | 101% | –

— US9980943B2, “Methods of treating muscular dystrophy” (BOARD OF REGENTS OF THE NEVADA SYSTEM OF HIGHER EDUCATION, …, priority 2013, dated 2018)
